Literature values as cited in US20220031887A1, “Active Materials, Surfaces, Surface Treatments And Methods Using Inclusion Complex Formers For Pathogen Reduction” (priority 2020, published 2022).

O=C1OC2(c3ccccc31)c1cc(Br)c(O)c(Br)c1Oc1c2cc(Br)c(O)c1Br [Eosin Y]
Epsilon (in ideal solvent): 112,000
Lambda Max (peak absorption in visible light): 525
